Experimental data as given in patent publication US20060281763A1, “Carboxamide inhibitors of TGFbeta” (priority 2005, published 2006).
Where two headings read alike, the source gives them in different places.

Molecular target: T1, TGFβ R1 (Homo sapiens, UniProt P36897)
T1 sequence (P36897 34-503): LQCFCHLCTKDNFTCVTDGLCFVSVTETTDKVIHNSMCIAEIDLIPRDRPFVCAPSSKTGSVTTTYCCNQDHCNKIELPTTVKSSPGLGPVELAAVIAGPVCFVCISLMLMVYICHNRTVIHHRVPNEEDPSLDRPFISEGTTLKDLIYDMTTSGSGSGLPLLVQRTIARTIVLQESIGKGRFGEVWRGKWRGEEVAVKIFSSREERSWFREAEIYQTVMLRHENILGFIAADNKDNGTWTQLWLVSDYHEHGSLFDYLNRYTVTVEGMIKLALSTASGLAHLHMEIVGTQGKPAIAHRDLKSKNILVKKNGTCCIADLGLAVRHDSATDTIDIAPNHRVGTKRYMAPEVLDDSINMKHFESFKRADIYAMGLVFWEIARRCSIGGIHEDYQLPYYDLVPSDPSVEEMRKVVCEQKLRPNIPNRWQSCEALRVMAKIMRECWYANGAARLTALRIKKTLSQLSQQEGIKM
Assay: TGFβ R1 autophosphorylation protocol (33P-ATP, phosphocellulose filter plate)
Type: biochemical
Details: 10 uM ATP, read-out: IC50 for Kinase Inhibition
Method: The compounds of the invention were tested for their ability to inhibit TGFβ by a TGFβ R^1 autophosphorylation protocol. This was conducted as follows: Compound dilutions and reagents were prepared fresh daily. Compounds were diluted from DMSO stock solutions to 2 times the desired assay concentration, keeping final DMSO concentration in the assay less than or equal to 1%. TGFβ R1 was diluted to 4 times the desired assay concentration in buffer+DTT. ATP was diluted into 4× reaction buffer, and gamma-^33P-ATP was added at 60 uCi/mL.
The assay was performed by adding 10 ul of the enzyme to 20 ul of the compound solution. The reaction was initiated by the addition of 10 ul of ATP mix. Final assay conditions included 10 uM ATP, 170 nM TGFβ R1, and […] in 20 mM MOPS, pH7. The reactions were incubated at room temperature for 20 minutes. The reactions were stopped by transferring 23 ul of reaction mixture onto a phosphocellulose 96-well filter plate, which had been pre-wetted with 15 ul of 0.25M H3PO4 per well. After 5 minutes, the wells were washed 4× with 75 mM H3PO4 and once with 95% ethanol. The plate was dried, scintillation cocktail was added to each well, and the wells were counted in a Packard TopCount microplate scintillation counter.

[1] = 170 nM TGFβ R1, 20 minutes at room temperature
[2] = 170 nM TGFβ R1, room temperature 20 minutes

Compound	IC50 [1] [nM]	IC50 [2] [nM]
COc1cnc(-c2cc(Cl)ccc2F)nc1Nc1ccncc1C(=O)N[C@H]1CN[C@@H](C(=O)N(C)C)C1 [Compound 107, 4-[2-(5-Chloro-2-fluoro-phenyl)-5-methoxy-pyrimidin-4-ylamino]-N-(5-dimethylcarbamoyl-pyrrolidin-3-yl)-nicotinamide]	90	
COc1cnc(-c2cc(Cl)ccc2F)nc1Nc1ccncc1C(=O)NCCCN1CCC[C@@H]1C(N)=O [Compound 166, N-[3-(2-Carbamoyl-pyrrolidin-1-yl)-propyl]-4-[2-(5-chloro-2-fluoro-phenyl)-5-methoxy-pyrimidin-4-ylamino]-nicotinamide]		5
COc1cnc(-c2cc(Cl)ccc2F)nc1Nc1ccncc1C(=O)NCCNCC(F)(F)C(F)(F)F [Compound 102, 4-[2-(5-Chloro-2-fluoro-phenyl)-5-methoxy-pyrimidin-4-ylamino]-N-[2-(2,2,3,3,3-pentafluoro-propylamino)-ethyl]-nicotinamide]	70	
CC(C)c1cnc(-c2cc(Cl)ccc2F)nc1Nc1ccncc1C(=O)NC1C[C@H]1CO (stereo in doubt) [Compound 216, 4-[2-(5-Chloro-2-fluoro-phenyl)-5-isopropyl-pyrimidin-4-ylamino]-N-(2-hydroxymethyl-cyclopropyl)-nicotinamide]		10
CC(C)c1cnc(-c2cc(Cl)ccc2F)nc1Nc1ccncc1C(=O)N1CCN[C@@H](C(C)C)C1 [Compound 231, {4-[2-(5-Chloro-2-fluoro-phenyl)-5-isopropyl-pyrimidin-4-ylamino]-pyridin-3-yl}-(3-isopropyl-piperazin-1-yl)-methanone]		1090
CC(C)c1cnc(-c2cc(Cl)ccc2F)nc1Nc1ccncc1C(=O)N1CCC[C@H](O)C1 [Compound 214, {4-[2-(5-Chloro-2-fluoro-phenyl)-5-isopropyl-pyrimidin-4-ylamino]-pyridin-3-yl}-(3-hydroxy-piperidin-1-yl)-methanone]		283
COc1cnc(-c2cc(Cl)ccc2F)nc1Nc1ccncc1C(=O)NCCNCC(F)(F)F [Compound 103, 4-[2-(5-Chloro-2-fluoro-phenyl)-5-methoxy-pyrimidin-4-ylamino]-N-[2-(2,2,2-trifluoro-ethylamino)-ethyl]-nicotinamide]	130	
CC(C)c1cnc(-c2cc(Cl)ccc2F)nc1Nc1ccncc1C(=O)N[C@@H]1CCC[C@H]1O [Compound 236, 4-[2-(5-Chloro-2-fluoro-phenyl)-5-isopropyl-pyrimidin-4-ylamino]-N-(2-hydroxy-cyclopentyl)-nicotinamide]		123
CC(C)c1cnc(-c2cc(Cl)ccc2F)nc1Nc1ccncc1C(=O)NCCCN1CCC[C@H]1CO [Compound 164, 4-[2-(5-Chloro-2-fluoro-phenyl)-5-isopropyl-pyrimidin-4-ylamino]-N-[3-(2-hydroxymethyl-pyrrolidin-1-yl)-propyl]-nicotinamide]		2
COc1cnc(-c2cc(Cl)ccc2F)nc1Nc1ccncc1C(=O)N1CCNCC1 [Compound 117, {4-[2-(5-Chloro-2-fluoro-phenyl)-5-methoxy-pyrimidin-4-ylamino]-pyridin-3-yl}-piperazin-1-yl-methanone]	6780	
CC(C)c1cnc(-c2cc(Cl)ccc2F)nc1Nc1ccncc1C(=O)NC[C@H](C)OC(=O)[C@H](N)C(C)C [Compound 207, 2-Amino-3-methyl-butyric acid 2-({4-[2-(5-chloro-2-fluoro-phenyl)-5-isopropyl-pyrimidin-4-ylamino]-pyridine-3-carbonyl}-amino)-1-methyl-ethyl-ester]		17
COc1cnc(-c2cc(Cl)ccc2F)nc1Nc1ccncc1C(=O)NCCN [Compound 39, N-(2-Amino-ethyl)-4-[2-(5-chloro-2-fluoro-phenyl)-5-methoxy-pyrimidin-4-ylamino]-nicotinamide]	50	
O=C(c1cnccc1Nc1nc(-c2cc(Cl)ccc2F)ncc1C1CCCC1)N1CCOCC1 [Compound 227, {4-[2-(5-Chloro-2-fluoro-phenyl)-5-cyclopentyl-pyrimidin-4-ylamino]-pyridin-3-yl}-morpholin-4-yl-methanone]		330
CC(C)c1cnc(-c2cc(Cl)ccc2F)nc1Nc1ccncc1C(=O)NC[C@H](C)OC(=O)[C@H](C)N [Compound 204, 2-Amino-propionic acid 2-({4-[2-(5-chloro-2-fluoro-phenyl)-5-isopropyl-pyrimidin-4-ylamino]-pyridine-3-carbonyl}-amino)-1-methyl-ethyl ester]		25
COc1cnc(-c2cc(Cl)ccc2F)nc1Nc1ccncc1C(=O)NC1CC1CO (stereo not drawn) [Compound 141, 4-[2-(5-Chloro-2-fluoro-phenyl)-5-methoxy-pyrimidin-4-ylamino]-N-(2-hydroxymethyl-cyclopropyl)-nicotinamide]	38	
COc1cnc(-c2cc(Cl)ccc2F)nc1Nc1ccncc1C(=O)NC1CCN(C(=O)CC2O[C@H](CO)[C@@H](O)[C@H](O)[C@H]2O)CC1 (stereo partly drawn) [Compound 148, 4-[2-(5-Chloro-2-fluoro-phenyl)-5-methoxy-pyrimidin-4-ylamino]-N-{1-[2-(3,4,5-trihydroxy-6-hydroxymethyl-tetrahydro-pyran-2-yl)-acetyl]-piperidin-4-yl}-nicotinamide]	207	
COc1cnc(-c2cc(Cl)ccc2F)nc1Nc1ccncc1C(=O)NCCCN1CCCC1 [Compound 29]	30	
COc1cnc(-c2cc(Cl)ccc2F)nc1Nc1ccncc1C(=O)NCCC(N)=O [Compound 70, N-(2-Carbamoyl-ethyl)-4-[2-(5-choro-2-fluoro-phenyl)-5-methoxy-pyrimidin-4-ylamino]-nicotinamide]	200	
CNC(=O)NCCNC(=O)c1cnccc1Nc1nc(-c2cc(Cl)ccc2F)ncc1OC [Compound 68, 4-[2-(5-chloro-2-fluoro-phenyl)-5-methoxy-pyrimidin-4-ylamino]-N-[2-(3-methyl-ureido)-ethyl]nicotinamide]	1540	
CC(C)c1cnc(-c2cc(Cl)ccc2F)nc1Nc1ccncc1C(=O)N1CCC(O)CC1 [Compound 230, {4-[2-(5-Chloro-2-fluoro-phenyl)-5-isopropyl-pyrimidin-4-ylamino)-pyridin-3-yl}-(4-hydroxy-piperidin-1-yl)-methanone]		1140
CC(C)c1cnc(-c2cc(Cl)ccc2F)nc1Nc1ccncc1C(=O)N1CCN(C)CC1 [Compound 208, {4-[2-(5-Chloro-2-fluoro-phenyl)-5-isopropyl-pyrimidin-4-ylamino]-pyridin-3-yl}-(4-methyl-piperazin-1-yl)-methanone]		1620
CC(C)c1cnc(-c2cc(Cl)ccc2F)nc1Nc1ccncc1C(=O)N1CCN[C@H](C)C1 [Compound 228, {4-[2-(5-Chloro-2-fluoro-phenyl)-5-isopropyl-pyrimidin-4-ylamino]-pyridin-3-yl}-(3-methyl-piperazin-1-yl)-methanone]		2780
COc1cnc(-c2cc(Cl)ccc2F)nc1Nc1ccncc1C(=O)NCCCNC(=O)COC1O[C@H](COC(C)=O)[C@@H](OC(C)=O)[C@H](OC(C)=O)[C@H]1OC(C)=O (stereo partly drawn) [Compound 133]	327	
COc1cnc(-c2cc(Cl)ccc2F)nc1Nc1ccncc1C(=O)NCCCN1CCCCC1C (stereo not drawn) [Compound 12, 4-[2-(5-Chloro-2-fluoro-phenyl)-5-methoxy-pyrimidin-4-ylamino]-N-[3-(2-methyl-piperidin-1-yl)-propyl]-nicotinamide]	60	
